Measured values: publication PMC7617869, “Molecular glues that inhibit deubiquitylase activity and inflammatory signaling” (Nature Structural & Molecular Biology, 2025)

Legend:
BRISC [1] = molecular target: T1, BRISC (Homo sapiens, UniProt P46736+Q15018+Q9NXR7); assay: Compound library screening and hit validation (IQF diubiquitin, 1 nM BRISC); assay type: biochemical
T1 construct: made in house; host or cells: Spodoptera frugiperda (Sf9) insect cells, MultiBac
Method: Assays were performed in 384-well black flat-bottom low-flange plates (Corning, 35373) in buffer containing 50 mM HEPES–NaOH pH 7.0, 100 mM NaCl, 1 mg ml^−1 BSA, 1 mM DTT and 0.03% v/v Brij-35. Then, 10 μl of twofold concentrated enzyme stock was dispensed, followed by transfer of 200 nl of compounds (1 mM stock) using a 384-pin tool and a 15-min incubation at room temperature. Then, 10 μl of twofold concentrated substrate stock was added and the reaction was monitored by measuring fluorescence intensity (excitation, 540 nm; emission, 580 nm) after 20-min incubation at room temperature and ~50% of substrate was consumed. Orthogonal assays for verification of H20 and P12 hit compounds using USP2 (100 nM) and trypsin (125 nM) were performed in identical conditions.

BRISC [2] = molecular target: T1, BRISC; assay: BRISC DUB activity assay (IQF K63-linked diubiquitin); assay type: biochemical; conditions: IQF diubiquitin assay
Method: IQF assays were performed in DUB reaction buffer containing 50 mM HEPES–NaOH pH 7.0, 100 mM NaCl, 0.1 mg ml^−1 BSA, 1 mM DTT and 0.03% v/v Brij-35. […] The final concentration of BRISC WT, all BRISC mutants, HsBRISCΔLoop, MmBRISC and DrBRISCΔNΔC was 1 nM. Other enzymes were tested at the following concentrations: 5 nM ARISC (FL), 10 nM CfBRISCΔNΔC, 250 nM AMSH* (ref. [43]), 500 nM USP2 and 1 μM trypsin (Sigma, 9002-07-7). For Michaelis–Menten experiments, 1 nM BRISC with 0–1 μM IQF K63-linked diubiquitin substrate was used. Michaelis–Menten analyses and Lineweaver–Burk plots were calculated using GraphPad Prism (version 9.0).
To assess enzymatic activity, BRISC complexes were diluted to concentrations between 1 nM and 50 nM. […] Then, 20-μl enzyme reactions were carried out in 384-well black flat-bottom low-flange plates (Corning, 35373). DUB activity was measured using IQF K63-linked diubiquitin (LifeSensors, DU6303) at 50 nM. Cleaved diubiquitin was monitored by measuring fluorescence intensity (excitation, 544 nm; emission, 575 nm; dichroic mirror, 560 nm). Fluorescence intensity was measured every minute for 30 min at 30 °C. Fluorescence intensity units were plotted against time to generate a linear reaction progress curve, where the initial velocity (V0) corresponds to the gradient of the curve (typically achieved within 15 min). IC50 values were calculated using the GraphPad Prism (version 9.0) built-in dose–response equation for inhibitor concentration versus response (variable slope).

| normalised V0, Mean (BRISC [1]; log[compound (μM)] 0.0000) | normalised V0, Mean (BRISC [1]; log[compound (μM)] 0.6990) | normalised V0, Mean (BRISC [1]; log[compound (μM)] 1.0000) | normalised V0, Mean (BRISC [1]; log[compound (μM)] 1.4771) | normalised V0, Mean (BRISC [1]; log[compound (μM)] 1.6990) | normalised V0, Mean (BRISC [1]; log[compound (μM)] 2.0000) | normalised V0, Mean (BRISC [1]; log[compound (μM)] 2.3010) | normalised V0, Mean (BRISC [1]; log[compound (μM)] -1.0000) | normalised V0, Mean (BRISC [1]; log[compound (μM)] -1.3010) | normalised V0, Mean (BRISC [1]; log[compound (μM)] -4.0000) | normalised V0, Mean (BRISC [1]; log[compound (μM)] 1.3010) | normalised V0, Mean (BRISC [1]; log[compound (μM)] -3.0000, normalisation point) | inhibition of BRISC DUB activity (in words) (BRISC [2]) | Structure (SMILES) |
| --- | --- | --- | --- | --- | --- | --- | --- | --- | --- | --- | --- | --- | --- |
| 0.9555 | 1.0013 | 1.0109 | 0.9903 | 1.0462 | 1.0357 | 0.9736 | 1.0118 | 0.9395 | 1.0025 |  |  |  | O=C(NC1CCNCC1)c1n[nH]cc1NC(=O)c1c(Cl)cccc1Cl [AT7519 (Sellekchem)] |
| 0.9360 |  | 0.9184 |  | 0.8666 | 0.8425 |  |  |  |  | 0.8902 | 1 |  | O=C(NC1CCNCC1)c1n[nH]cc1NC(=O)c1c(Cl)cccc1Cl [AT7519 (Synkinase)] |
|  |  |  |  |  |  |  |  |  |  |  |  | neither inhibited | O=C(NC1CCNCC1)c1n[nH]cc1NC(=O)c1c(Cl)cccc1Cl [AT7519, N-(4-piperidinyl)-4-(2,6-dichlorobenzoylamino)-1H-pyrazole-3-carboxamide, reference compound] |
